Reference: article PMC6689897, “Drugging an undruggable pocket on KRAS” (Proceedings of the National Academy of Sciences of the …, 2019)

Experiments:
[1] = system: KRAS; assay: Alpha Screen PPI assays, summary over KRAS interactions (SOS1, CRAF, PI3Kα); assay type: biochemical, human
Source text: Using biochemical assays, we investigated whether 1 inhibited 3 of the 4 PPIs important for KRAS cycling (Fig. 5 A, i–iii). Namely, 1) GDP-KRAS interaction with the catalytic site of SOS ([33]), 2) GTP-KRAS interaction with the allosteric site of SOS ([34]), and 3) GTP-KRAS interaction with downstream effectors (CRAF and PI3Kα). We were unable to establish a biochemical assay for the fourth intervention point, namely, 4) GTP-KRAS interaction with its GAPs (Fig. 5 A, iv). As a reference compound for these assays, we used the KRAS^G12C-specific covalent inhibitor ARS-1620 ([35]). Compound 1 inhibited all 3 RAS cycle intervention points (1 to 3) in a dose-dependent manner (Fig. 5 B–E) in the range of 100 to 770 nM (SI Appendix, Table S6).
217 The coordinates and structure factors of the structures have been deposited at the
218 Protein Data Bank with the accession codes PDB Code 6GJ5, 6GJ6, 6GJ7, 6GJ8.
221 Measurements of various protein–protein interactions were performed using the Alpha
222 Screen technology developed by Perkin Elmer. Recombinant RAS proteins (H-, N-, K-
223 RAS variants; all KRAS variants are based on KRAS isoform 4B (uniprot id P01116-2);
224 KRAS (G12D) 1-169, N-terminal 6His-tag, C-terminal avi-tag was from Xtal
225 BioStructures, Inc., KRAS (G12C) 1-169, C-terminal avi-tag, biotinylated, mutations:
226 C51S, C80L, C118S, NRAS(wt) 1-172, C-terminal avi-tag, biotinylated; HRAS(wt) 1-
227 166, C-terminal avi-tag, biotinylated). Biotinylation was performed in vitro with
228 recombinant BirA biotin-protein ligase as recommended by the manufacturer (Avidity
229 LLC, Aurora, Colorado, USA). Interacting proteins such as SOS1 (564-1049, N-terminal
230 GST-tag, TEV cleavage site), cRaf (1-303, N-terminal GST-tag, TEV cleavage site) and
231 PI3KA- RBD (160-317, N-term-HIS_GST-tag) were expressed as glutathione S […]
245 for 60 min in the dark at room temperature. Single oxygen induced fluorescence was
246 measured at an Enspire multimode plate reader (Perkin Elmer) according to the
247 manufacturer’s recommendations. Data were analyzed using the GraphPad Prism data […]

[2] = system: NCI-H358 cells; assay: RAS GTP detection (Ras G-LISA activation assay); assay type: cell-based, human; settings: for steady-state RAS GTP levels: high growth factor conditions; for formation of GTP-loaded KRAS / RAS GTP levels: starved 24 h low serum, 2 h compound, then EGF
Procedure: When we incubated NCI-H358 cells with 50 µM 1 for 1 h, as previously observed, no change in GTP-KRAS was observed. In contrast, 20 µM ARS-1620 caused an 80% reduction of the GTP-bound RAS pool. When the 2 compounds were combined, only a 30% reduction of GTP-RAS was observed, which is in line with inhibiting the binding of GAPs with KRAS (Fig. 6D). […]
332 RAS GTP detection (Ras G-LISA Activation assay):
333 Ras-GTP levels were analyzed using a Ras G-LISA assay kit (Cytoskeleton Inc.,
335 600.000 cells were seeded in 6 wells and grown to 70% confluence. Cells were washed
337 provided protease inhibitor cocktail. Lysates were quickly frozen in liquid nitrogen
338 and stored at -80°C until further usage. After normalizing protein concentration, 40µg
339 of protein was added in duplicates to wells of the Ras G-LISA plate coated with Ras
340 GTP-binding protein and incubated at 4°C for 30 minutes while shaking at 400rpm.
341 After washing, antigen presenting buffer was added for 2 minutes. To measure bound
342 Ras GTP levels, wells were subsequently incubated with an anti-Ras primary antibody
343 (1:50) followed by a HRP-labeled secondary antibody (1:500) and finally by adding a
344 HRP detection reagent. Absorbance was measured by 490nm using an EnSpire
345 Multimode Reader (Perkin Elmer). Background was determined by a negative control
346 well and subtracted from all samples. […]

SMILES	activity in all GTP-dependent KRAS assays [1]	reduction of the GTP-bound RAS pool ([2]; 20 µM ARS-1620) [%]	steady-state RAS GTP levels [2]	formation of GTP-loaded KRAS / RAS GTP levels [2]	IC50 ([1]; GDP-KRAS::SOS, GTP-KRAS::SOS, GTP-KRAS::effectors (CRAF, PI3Kα), read-out: inhibition of all 3 RAS cycle intervention points, range) [nM]	reduction of GTP-RAS ([2]; 50 µM 1 combined with 20 µM ARS-1620) [%]	change in GTP-KRAS ([2]; 50 µM 1 for 1 h)
C=CC(=O)N1CCN(c2ncnc3c(F)c(-c4c(O)cccc4F)c(Cl)cc23)CC1 [ARS-1620, reference compound]	inactive	80	strongly reduced	reduced the RAS GTP levels even below the DMSO control	–	–	–
Cn1cnc(Cn2ccc3ccc(CNCc4[nH]c5ccccc5c4[C@H]4NC(=O)c5ccc(O)cc54)cc32)c1 [Compound 1]	–	–	does not change	dose-dependent inhibition	100 to 770	30	no change
